From patent US4738971A, “N-aryl-1,2-dihydro-4-substituted-1-alkyl-2-oxo-quinoline-3-carboxamides” (priority 1981, dated 1988)
Where a name gives a salt, the structure may show the parent alone.

Experiments:
[1] = test system: carrageenan-induced edema; experiment: carrageenan edema test in rats; format: in vivo, rat (female Sprague-Dawley); settings: for change in vivo at 80 mg/kg: Rattus norvegicus, po, 80 mg/kg p.o., 30 min before carrageenan, edema weight 3 h after, vs control, preliminary, read-out: Potentiation of the carrageenan edema, %; for significant potentiation of the carrageenan edema: dose within the range 10-160 mg/kg p.o.
Source text: Another test, in which the effect of a drug corresponds to the effects obtained in the tests mentioned above, and which can therefore also be used, is the well-established carrageenan edema test in rats (5). Comparative evaluation of compounds of the present invention in the three tests mentioned has shown that compounds which increase the extent of the delayed hypersensitivity reaction in the pertussis vaccine pleurisy test and in the adjuvant arthritis test also increase the extent of carrageenan-induced edema in the carrageenan edema test, thus providing a further tool for the determination of enhancement of cell-mediated immunity.
This example illustrates the effect of the compounds of the general formula I in the carrageenan edema test in rats.
A modification of a method described in (5) was used. Female Sprague-Dawleyrats weighing 110-120 g was used. At least 10 animals were used in each experimental group. Foot edema was induced by injecting carrageenan in 0.9% NaCl into the plantar surface of the right hind paw of the rats.
The substances suspended in aqueous methocel solution 10 ml/kg were administered intragastrically 30 minutes before the injection of carrageenan. The control groups were given methocel solution 10 ml/kg.
Three hours after carrageenan injection the animals were killed. The hind feet were cut off and weighed. The difference in weight of the injected right paw and the uninjected left paw was called edema weight.
The effect of the substances was assessed by the edema weight expressed in percent after comparison with the control groups.

[2] = test system: delayed hypersensitivity reaction (pertussis vaccine pleurisy); experiment: pertussis vaccine pleurisy test in rats; format: in vivo, rat (male Sprague-Dawley); settings: 10 mg/kg p.o.; for change in vivo at 10 mg/kg: Rattus norvegicus, po, 48 h, once daily day 10 to day 13, vs control, preliminary, read-out: Enhancement of the delayed hypersensitivity reaction assessed by the exudate vol.
Source text: A useful test for the evaluation of the effect of chemical compounds on the immune system is the pertussis vaccine pleurisy test in rats. Compounds which enhance the response in this delayed hypersensitivity reaction are considered to stimulate cell-mediated immunity (4).
This example illustrates the effect of the compounds of the general formula I in the pertussis vaccine pleurisy test.
Pertussis vaccine pleurisy is a useful test for the evaluation of the effect of chemical compounds on the immune system. Compounds which enhance the response in this delayed hypersensitivity reaction are considered to stimulate cell-mediated immunity.
A modification of a method described in (4) was used. Male Sprague-Dawley rats weighing 250-275 g were used. At least ten animals were used in each group.
Equal volumes of Freund's incomplete adjuvant and a suspension of heat killed Bordetella pertussis organisms were mixed. To sensitize animals, day 0, 0.2 ml of a mixture containing 0.036×10^10 organisms/ml was injected into the dorsal surface of one hind paw and one forepaw.
The animals were challenged on day 12 with 0.1 ml of a mixture containing 0.25×10^10 organisms/ml that was injected intrapleurally. 48 hours after challenge, day 14, the volume of the exudate in the pleural cavity was measured.
The substances suspended in aqueous methocel solution 10 ml/kg were given intragastrically once daily from day 10 to day 13. The control groups were given methocel solution 10 ml/kg.
The effect of the substances was assessed by the exudate volume expressed in percent after comparison with the control groups.

SMILES | change in vivo at 80 mg/kg [1] [%] | change in vivo at 10 mg/kg [2] [%] | significant potentiation of the carrageenan edema [1] | significant enhancing effect in the pertussis vaccine pleurisy test [2]
CN(C)c1ccc2c(c1)c(O)c(C(=O)Nc1ccccc1)c(=O)n2C [1:5, N-phenyl-1,2-dihydro-6-dimethylamino-4-hydroxy-1-methyl-2-oxo-quinoline-3-carboxamide] | 28 | 47 | – | –
Cn1c(=O)c(C(=O)Nc2ccccc2Cl)c(O)c2ccccc21 [1:8, N-/2-chlorophenyl/-1,2-dihydro-4-hydroxy-1-methyl-2-oxo-quinoline-3-carboxamide] | 21 | 27 | – | –
CC(=O)Nc1ccc(NC(=O)c2c(O)c3ccccc3n(C)c2=O)cc1 [1:41, N-(4-acetylaminophenyl)-1,2-dihydro-4-hydroxy-1-methyl-2-oxo-quinoline-3-carboxamide] | – | – | potentiate significantly | significant enhancing effect
CCCn1c(=O)c(C(=O)Nc2ccccn2)c(O)c2ccccc21 [7:10, N-/2-pyridyl/-1,2-dihydro-4-hydroxy-2-oxo-1-n-propyl-quinoline-3-carboxamide] | 24 | 41 | – | –
O=C(Nc1ccc(N2CCCC2)cc1)c1c(O)c2cccc3c2n(c1=O)CC3 [12:7, N-(4-pyrrolidinophenyl)-1,2-dihydro-1,8-ethylene-4-hydroxy-2-oxo-quinoline-3-carboxamide, hydrochloride] | – | – | potentiate significantly | significant enhancing effect
CN(C)c1ccc(NC(=O)c2c(O)c3cccc4c3n(c2=O)CC4)cc1 [12:8, N-(4-dimethylaminophenyl)-1,2-dihydro-1,8-ethylene-4-hydroxy-2-oxo-quinoline-3-carboxamide] | 51 | 29 | – | –
COc1c(C(=O)Nc2nccs2)c(=O)n2c3c(cccc13)CC2 [16:1, N-(2-thiazolyl)-1,2-dihydro-1,8-ethylene-4-methoxy-2-oxo-quinoline-3-carboxamide] | – | – | potentiate significantly | –
COc1c(C(=O)Nc2nccs2)c(=O)n(C)c2ccccc12 [17:1, N-(2-thiazolyl)-1,2-dihydro-4-methoxy-1-methyl-2-oxo-quinoline-3-carboxamide] | – | – | potentiate significantly | –
COc1c(C(=O)Nc2ccccc2)c(=O)n2c3c(cccc13)CC2 [18:1, N-phenyl-1,2-dihydro-1,8-ethylene-4-methoxy-2-oxo-quinoline-3-carboxamide] | – | – | potentiate significantly | –
COc1c(C(=O)Nc2ccccc2)c(=O)n2c3c(cccc13)CCC2 [18:2, N-phenyl-1,2-dihydro-4-methoxy-2-oxo-1,8-trimethylene-quinoline-3-carboxamide] | – | – | potentiate significantly | –
CCOc1c(C(=O)Nc2ccc(N(C)C)cc2)c(=O)n2c3c(cccc13)CC2 [18:3, N-(4-dimethylaminophenyl)-1,2-dihydro-4-ethoxy-1,8-ethylene-2-oxo-quinoline-3-carboxamide] | – | – | potentiate significantly | –
COc1ccc2c(c1)c(O)c(C(=O)N(C)c1ccccc1)c(=O)n2C [20:5, N-methyl-N-phenyl-1,2-dihydro-4-hydroxy-6-methoxy-1-methyl-2-oxo-quinoline-3-carboxamide] | – | – | potentiate significantly | significant enhancing effect
CN(C(=O)c1c(O)c2ccccc2n(C)c1=O)c1ccc(N2CCCCC2)cc1 [20:9, N-(4-piperidinophenyl)-N-methyl-1,2-dihydro-4-hydroxy-1-methyl-2-oxo-quinoline-3-carboxamide] | – | – | potentiate significantly | significant enhancing effect
CCn1c(=O)c(C(=O)N(C)c2ccccc2)c(O)c2ccccc21 [20:10, N-methyl-N-phenyl-1,2-dihydro-1-ethyl-4-hydroxy-2-oxo-quinoline-3-carboxamide] | – | – | potentiate significantly | significant enhancing effect
CN(C(=O)c1c(O)c2c(F)cccc2n(C)c1=O)c1ccccc1 [20:16, N-methyl-N-phenyl-1,2-dihydro-5-fluoro-4-hydroxy-1-methyl-2-oxo-quinoline-3-carboxamide] | – | – | potentiate significantly | significant enhancing effect
CN(C(=O)c1c(O)c2ccccc2n(C)c1=O)c1ccc2c(c1)OCO2 [20:29, N-methyl-N-(3,4-methylenedioxyphenyl)-1,2-dihydro-4-hydroxy-1-methyl-2-oxo-quinoline-3-carboxamide] | – | – | potentiate significantly | significant enhancing effect
COc1ccc(-n2c(=O)c(C(=O)N(C)c3ccccc3)c(O)c3ccccc32)cc1 [20:34, N-methyl-N-phenyl-1-(4-methoxyphenyl)-1,2-dihydro-4-hydroxy-2-oxo-quinoline-3-carboxamide] | – | – | potentiate significantly | significant enhancing effect
CC(=O)Nc1ccc(N(C)C(=O)c2c(O)c3ccccc3n(C)c2=O)cc1 [20:35, N-(4-acetylaminophenyl)-N-methyl-1,2-dihydro-4-hydroxy-1-methyl-2-oxo-quinoline-3-carboxamide] | – | – | potentiate significantly | significant enhancing effect
C=CCn1c(=O)c(C(=O)N(C)c2ccc(N(C)C)cc2)c(O)c2ccccc21 [20:39, N-(4-dimethylaminophenyl)-N-methyl-1-allyl-1,2-dihydro-4-hydroxy-2-oxo-quinoline-3-carboxamide] | – | – | potentiate significantly | significant enhancing effect
CN(C(=O)c1c(O)c2cccc3c2n(c1=O)CC3)c1ccccc1 [21:3, N-methyl-N-phenyl-1,2-dihydro-1,8-ethylene-4-hydroxy-2-oxo-quinoline-3-carboxamide] | – | – | potentiate significantly | significant enhancing effect
CCCCN(C(=O)c1c(O)c2ccccc2n(C)c1=O)c1ccccc1 [21:8, N-(n-butyl)-N-phenyl-1,2-dihydro-4-hydroxy-1-methyl-2-oxo-quinoline-3-carboxamide] | – | – | potentiate significantly | significant enhancing effect
CN(C)c1ccc(N(C)C(=O)c2c(O)c3ccccc3n(C)c2=O)cc1 [21:10, N-(4-dimethylaminophenyl)-N-methyl-1,2-dihydro-4-hydroxy-1-methyl-2-oxo-quinoline-3-carboxamide] | – | – | potentiate significantly | significant enhancing effect
C=CCN(C(=O)c1c(O)c2ccccc2n(C)c1=O)c1ccccc1 [21:12, N-allyl-N-phenyl-1,2-dihydro-4-hydroxy-1-methyl-2-oxo-quinoline-3-carboxamide] | – | – | potentiate significantly | significant enhancing effect
CCN(C(=O)c1c(OC)c2c(F)cccc2n(C)c1=O)c1ccc(OC)c(OC)c1 [21:16, N-(3,4-dimethoxyphenyl)-N-ethyl-1,2-dihydro-5-fluoro-4-methoxy-1-methyl-2-oxo-quinoline-3-carboxamide] | – | – | potentiate significantly | significant enhancing effect
CN(C(=O)c1c(O)c2cccc3c2n(c1=O)CC3)c1cnccn1 [21:20, N-methyl-N-pyrazinyl-1,2-dihydro-1,8-ethylene-4-hydroxy-2-oxo-quinoline-3-carboxamide] | – | – | potentiate significantly | significant enhancing effect
